Source: patent US11072601B2, “μ-opioid receptor agonist and preparation method therefor and use thereof in field of medicine” (SHANGHAI SYNERGY PHARMACEUTICAL SCIENCES CO., LTD., priority 2017, dated 2021)

Assays:
[1] = target: T1, cAMP pathway of MOR receptor (Homo sapiens, UniProt P35372); assay: cell-based; details: cAMP Hunter HEK293 cells, forskolin-induced cAMP; read-out: EC50 of cAMP levels affected by agonistic effect on MOR
T1 construct: host or cells: HEK293 (cAMP Hunter cell line)

[2] = target: T2, β-arrestin signaling pathway of MOR (Homo sapiens, UniProt P35372); assay: cell-based; details: PathHunter HEK293 cells, relative to endorphin MAX control
T2 construct: host or cells: HEK293 (PathHunter cell line)

[3] = Pharmacokinetic test in rats, intravenous; type: in vivo; details: male, SD, rat, plasma, intravenous 1 mg/kg; for AUC: read-out: curve area (AUC); for half-life: read-out: half life (T½) (converted); for Cmax: read-out: plasma concentration (Cmax)
Source text: 8-week-old male SD rats weighing 200-300 g were used as experimental animals, and LC/MS/MS method was used to determine the drug concentration in plasma at different times after the administration of the compound of Example H01, the compound of Example H04, the compound of Example H05, the compound of Example H07, the compound of Example H16, the compound of Example H17, the compound of Example H18, the compound of Example H21, and the compound of Example H24. The pharmacokinetic behavior of the compounds of the present invention in rats was studied, and its pharmacokinetic characteristics were evaluated.
A certain amount of the compounds were weighed, and dissolved in ethanol/castor oil/water=10/10/80 to form a uniform solution.
The above compounds were administered intravenously to rats at a dose of 1 mg/kg, and 0.2 ml of blood was collected from the orbit at 0.083, 0.25, 0.5, 1.0, 2.0, 4.0, 6.0, 8.0, 12.0, 24.0 hours before and after administration, and placed in an anticoagulant tube, the plasma was separated by centrifugation at 6,000 rpm for 10 minutes at 4° C., and stored at −80° C.
50 μL of plasma was taken at different times, 150 μL of acetonitrile solution containing internal standard tolbutamide (200 ng/mL) was added, the system was mixed and shaked for 5 minutes, 12000 rpm, centrifuged for 5 minutes, 100 μL of supernatant was removed, and then mixed with 200 μL of water, then the sample was loaded for analysis. The internal standard tolbutamide solid (Aladdin, T129578) powder was dissolved in DMSO to prepare into a 1 mg/mL stock solution. The stock solution was diluted with 100% acetonitrile to obtain a solution of 200 ng/mL as a protein precipitator.
The liquid chromatography system was an LC-20AD UFLC high performance liquid chromatography system (Shimadzu, LC-20AD). The mass spectrometry system was an AB Sciex API4000 triple quadrupole mass spectrometer equipped with an electrospray ionization source (ESI) (Applied Biosystems, Canada). The software used to control the liquid-mass coanalyzer and quantitative analysis was Analyst 1.6 (Applied Biosystems, Canada), and the pharmacokinetic parameters were analyzed using WinNonlin (version 5.2, Pharsight, Mountain View, Calif.) non-compartment model.
Liquid chromatographic separation was performed using AQ-C18 column (50×2.1 mm, internal diameter of […]). The column temperature was maintained at room temperature.
The compound to be tested was dissolved in DMSO to prepare a stock solution with a concentration of 1 mg/mL, and diluted with 70% acetonitrile to obtain a series of standard working solutions with concentrations of 30, 10, 3, 1, 0.3, 0.1, 0.03, and 0.01. μg/mL, and a series of standard quality control solutions (24, 8 and 0.03 μg/mL). 5 μL of standard solution and 45 μL of blank plasma matrix were mixed uniformity to obtain standard solutions (3000, 1000, 300, 100, 30, 10, 3, and 1 ng/mL) and quality control standards (plasma samples: 2400, 800, 80, and 3 ng/mL) at each concentration point of the standard curve.

T2 sequence (P35372 whole entry): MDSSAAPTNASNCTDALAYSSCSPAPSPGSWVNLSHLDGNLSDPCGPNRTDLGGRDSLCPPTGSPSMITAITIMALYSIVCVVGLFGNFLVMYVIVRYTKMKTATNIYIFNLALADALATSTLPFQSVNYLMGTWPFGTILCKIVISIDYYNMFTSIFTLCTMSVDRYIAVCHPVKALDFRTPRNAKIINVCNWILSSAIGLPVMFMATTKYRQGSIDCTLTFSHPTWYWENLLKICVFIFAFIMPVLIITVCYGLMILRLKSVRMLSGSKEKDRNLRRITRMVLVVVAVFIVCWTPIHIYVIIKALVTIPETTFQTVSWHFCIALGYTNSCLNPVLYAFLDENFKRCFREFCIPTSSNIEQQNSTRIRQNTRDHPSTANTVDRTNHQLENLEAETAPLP
T1 sequence (P35372 whole entry): as above

| Structure (SMILES) | EC50 [1] [nM] | Emax [2] [%] | AUC [3] [ng·h/mL] | half-life [3] [h] | Cmax [3] [ng/mL] |
| --- | --- | --- | --- | --- | --- |
| CNc1ccsc1C(=O)NCCC1(c2ccccn2)CCOC2(CCCC2)C1 (stereo not drawn) [Example H24, 3-methylamino-thiophene-2-carboxylic acid [2-(9-pyridin-2-yl-6-oxa-spiro[4.5]decan-9-yl)-ethyl]-amide] | 3.74 | 2.76 | 682 ± 21 | 3.05 ± 0.15 | 583 ± 23.3 |
| Fc1ccc(C2(CCNCc3ccccc3OC(F)(F)F)CCOC3(CCCC3)C2)nc1 (stereo not drawn) [Example H21, {2-[9-(5-fluoro-pyridin-2-yl)-6-oxa-spiro[4.5]decan-9-yl]-ethyl}-(2-(trifluoromethoxy)-phenmethyl)-amine] | 2.57 | 0.08 | 382 ± 10.8 | 2.05 ± 0.25 | 283 ± 13.3 |
| FC(F)Oc1ccccc1CNCCC1(c2ccccn2)CCOC2(CCCC2)C1 (stereo not drawn) [Example H16, (2-difluoromethoxybenzyl)-[2-(9-(pyridin-2-yl)-6-oxaspiro[4.5]decan-9-yl)ethyl]amine] | 1.36 | 3.12 | 1190 ± 54 | 5.3 ± 0.02 | 820 ± 37.5 |
| Cc1c(Cl)cccc1CNCCC1(c2ccccn2)CCOC2(CCCC2)C1 (stereo not drawn) [Example H04, (3-chloro-2-methylbenzyl)-[2-(9-(pyridin-2-yl)-6-oxaspiro[4.5]decan-9-yl)ethyl]amine] | 4.36 | 6.12 | 494 ± 34 | 2.92 ± 0.02 | 378 ± 17.5 |
| FC(F)(F)Oc1ccc(Cl)cc1CNCCC1(c2ccccn2)CCOC2(CCCC2)C1 (stereo not drawn) [Example H17, (5-chloro-2-trifluoromethoxybenzyl)-[2-(9-(pyridin-2-yl)-6-oxaspiro[4.5]decan-9-yl)ethyl]amine] | 1.89 | 1.78 | 482 ± 31.8 | 1.45 ± 0.15 | 388 ± 23.3 |
| FC(F)Oc1ccsc1CNCCC1(c2ccccn2)CCOC2(CCCC2)C1 (stereo not drawn) [Example H18, ((3-difluoromethoxythiophen-2-yl)methyl)-[2-(9-(pyridin-2-yl)-6-oxaspiro[4.5]decan-9-yl)ethyl]a mine] | 2.35 | 0.48 | 582 ± 11.8 | 3.45 ± 0.55 | 483 ± 23.3 |
